# According to patent publication US20180155757A1, “IDENTIFICATION OF BACTERIA THAT ARE RESISTANT TO CARBAPENEMS BY MEMBRANE IMPERVIOUSNESS” (BIOMÉRIEUX, priority 2015, published 2018):
# Like-named read-outs stand apart in the source and are kept apart here.
# Assays:
# Assay in all cases: Etest MIC of indicator carbapenems on MH II agar without/with PMBN
# Assay type in all cases: cell-based
# [1] = system: E. aerogenes 1204050 (membrane impermeability); details: in µg/mL
# Method: (§1) The determinations of antibiotic MIC were carried out on solid culture media with the Etest® method. To do this, Etest® strips (bioMérieux, France) were used: • Etest® Imipenem IM 32, and • Etest® Ertapenem ETP 32, and also solid culture media, differing from one another by virtue of their non-inhibitory concentrations of PMBN.
# (§2) These solid culture media are prepared in Petri dishes (0=145 mm; V=50 ml) on a base of MH II Agar (Becton Dickinson®, United States), more or less supplemented with PMBN. The PMBN concentrations range from 0 up to concentrations equivalent to one fifth of the MIC of PMBN (⅕ MICPMBN).
# (§3) Using a swab and the Retro C80™ rota-plater (bioMérieux, France), the culture media were inoculated with the bacteria, originating from an inoculum of 0.5 McFarland, prepared in 0.85% NaCl solution from colonies subcultured the day before on MH II agar.
# (§4) The various Etest® strips are then deposited on the surface of the culture media. After 16 to 20 hours of incubation at 35° C., the MICS were read.
# (§5) By way of indicator carbapenems according to the invention, in addition to imipenem (IM) and ertapenem (ETP), meropenem (MP) was also tested. Like the other two antibiotics, meropenem was used in the form of Etest® strips (Etest® Meropenem MP 32 from the company bioMérieux, France).
# (§6) The methods used to prepare the new culture media and to carry out the antibiotic-sensitivity tests are identical to those described above.
# [2] = system: E. coli SAB 108 (porin−); details: Escherichia coli
# Method: as §1, §2, §3, §4, §5, §6
# [3] = system: Enterobacter aerogenes EA 27 (porin−); details: Klebsiella aerogenes, read-out: MIC
# Method: as §1, §2, §3, §4, §5, §6
# [4] = system: K. pneumoniae 1103183 (NDM producer)
# Method: as §1, §2, §3, §4, §5, §6
# [5] = system: K. pneumoniae 1204035 (membrane impermeability); details: in µg/mL
# Method: as §1, §2, §3, §4, §5, §6
# [6] = system: K. pneumoniae KP 55 (porin−); details: Klebsiella pneumoniae
# Method: as §1, §2, §3, §4, §5, §6
# [7] = system: E. aerogenes 1204048; details: in µg/mL
# Method: as §1, §2, §3, §4
# (§7) To do this, imipenem and ertapenem were used as indicator carbapenems. Non-inhibitory concentrations of PMBN, equivalent to concentrations of one tenth ( 1/10), one eighth (⅛) and one fifth (⅕) of the MIC of PMBN, were applied.
# (§8) In the light of the MICPMBN values previously identified, very predominantly much higher than 300 μg/ml, the following standard concentrations were retained and applied to the bacterial strains to be tested: 50, 100, 150, 200 and 300 μg/ml.
# as §5, §6
# [8] = system: E. aerogenes 9203076; details: in µg/mL
# Method: as §1, §2, §3, §4, §7, §8, §5, §6
smiles,measurement,setting,value
"C[C@@H](O)[C@H]1C(=O)N2C(C(=O)O)=C(SCCN=CN)C[C@H]12 [IM, imipenem]",MIC,"[1]; [PMBN] 0, Table 4a",>32
same,MIC,"[1]; [PMBN] 100, Table 4a",>32
same,MIC,"[1]; [PMBN] 200, Table 4a",>32
same,MIC,"[1]; [PMBN] 300, Table 4a",>32
same,MIC,[2]; [PMBN] 0,0.75 µg/mL
same,MIC,[2]; [PMBN] 50 μg/ml,0.38 µg/mL
same,MIC,[2]; [PMBN] 100 μg/ml,0.25 µg/mL
same,MIC,[2]; [PMBN] 150 μg/ml,0.25 µg/mL
same,MIC,[2]; [PMBN] 200 μg/ml,0.19 µg/mL
same,MIC,"[3]; E. aerogenes EA 27 (porin−), [PMBN] 0, Table 4",12 µg/mL
same,MIC,"[3]; E. aerogenes EA 27 (porin−), [PMBN] 50 μg/ml",6 µg/mL
same,MIC,"[3]; E. aerogenes EA 27 (porin−), [PMBN] 100 μg/ml",3 µg/mL
same,MIC,"[3]; E. aerogenes EA 27 (porin−), [PMBN] 150 μg/ml",3 µg/mL
same,MIC,"[3]; E. aerogenes EA 27 (porin−), [PMBN] 200 μg/ml",3 µg/mL
same,MIC,"[3]; EA 27 (porin−), [PMBN] 0, Table 2",8 µg/mL
same,MIC,"[3]; EA 27 (porin−), [PMBN] MIC/5",0.03 µg/mL
same,MIC,"[3]; EA 27 (porin−), [PMBN] MIC/8",0.06 µg/mL
same,MIC,"[3]; EA 27 (porin−), [PMBN] MIC/10",8 µg/mL
same,MIC,"[4]; [PMBN] 0, Table 4a",24 µg/mL
same,MIC,"[4]; [PMBN] 100, Table 4a",> 32 µg/mL
same,MIC,"[4]; [PMBN] 200, Table 4a",> 32 µg/mL
same,MIC,"[4]; [PMBN] 300, Table 4a",6 µg/mL
same,MIC,"[5]; [PMBN] 0, Table 4a",1.5
same,MIC,"[5]; [PMBN] 100, Table 4a",0.75
same,MIC,"[5]; [PMBN] 200, Table 4a",0.5-0.75
same,MIC,"[5]; [PMBN] 300, Table 4a",0.5-1
same,MIC,[6]; [PMBN] 0,0.38 µg/mL
same,MIC,[6]; [PMBN] 50 μg/ml,0.25 µg/mL
same,MIC,[6]; [PMBN] 100 μg/ml,0.25 µg/mL
same,MIC,[6]; [PMBN] 150 μg/ml,0.25 µg/mL
same,MIC,[6]; [PMBN] 200 μg/ml,0.19 µg/mL
same,MIC,"[7]; E. aerogenes 1204048 (membrane impermeability), [PMBN] 0, Table 4a",>32
same,MIC,"[7]; E. aerogenes 1204048 (membrane impermeability), [PMBN] 100, Table 4a",12
same,MIC,"[7]; E. aerogenes 1204048 (membrane impermeability), [PMBN] 200, Table 4a",6
same,MIC,"[7]; E. aerogenes 1204048 (membrane impermeability), [PMBN] 300, Table 4a",3
same,MIC,"[7]; E. aerogenes 1204048, [PMBN] 0, Table 3",16
same,MIC,"[7]; E. aerogenes 1204048, [PMBN] MIC/5",0.5
same,MIC,"[7]; E. aerogenes 1204048, [PMBN] MIC/8",1
same,MIC,"[7]; E. aerogenes 1204048, [PMBN] MIC/10",2
same,MIC,"[8]; E. aerogenes 9203076 (membrane impermeability), [PMBN] 0, Table 4a",8
same,MIC,"[8]; E. aerogenes 9203076 (membrane impermeability), [PMBN] 100, Table 4a",16
same,MIC,"[8]; E. aerogenes 9203076 (membrane impermeability), [PMBN] 200, Table 4a",4
same,MIC,"[8]; E. aerogenes 9203076 (membrane impermeability), [PMBN] 300, Table 4a",4
same,MIC,"[8]; E. aerogenes 9203076, [PMBN] 0, Table 3",8
same,MIC,"[8]; E. aerogenes 9203076, [PMBN] MIC/5",2
same,MIC,"[8]; E. aerogenes 9203076, [PMBN] MIC/8",2
same,MIC,"[8]; E. aerogenes 9203076, [PMBN] MIC/10",2
